system: HEK293T cells carrying the ATF4 luciferase reporter; assay: ATF4-Luc assay (ATF4 luciferase reporter, tunicamycin-treated cells); assay type: cell-based; settings: Homo sapiens, HEK-293T, 1 μg/mL tunicamycin, 7 hours
In short: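 A stable HEK293T reporter line was made by placing the full-length human ATF4 5′-UTR ahead of a firefly luciferase sequence without its start methionine, delivered by retroviral transduction and puromycin selection. Cells were seeded at 30,000 per well in polylysine-coated 384-well plates, exposed next day to 1 μg/mL tunicamycin plus compound for 7 hours, and luminescence was read with One Glo.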

Compound | EC50 [nM]
Cc1csc(C(=O)NC23CCC(NC(=O)COc4ccc(Cl)cc4)(CC2)[C@@H](O)C3)n1 [Compound 1064, N-{(3S)-4-[2-(4-chlorophenoxy)acetamido]-3-hydroxybicyclo[2.2.2]octan-1-yl}-4-methyl-1,3-thiazole-2-carboxamide] | 250 to 1000
Cc1csc(C(=O)NC23CCC(NC(=O)COc4ccc(Cl)c(F)c4)(CC2)[C@@H](O)C3)n1 [Compound 1065, N-{(3S)-4-[2-(4-chloro-3-fluorophenoxy)acetamido]-3-hydroxybicyclo[2.2.2]octan-1-yl}-4-methyl-1,3-thiazole-2-carboxamide] | < 50
O=C(COc1ccc(Cl)c(F)c1)NC12CCC(NC(=O)c3ccn(-c4ccc(Cl)c(Cl)c4)n3)(CC1)[C@@H](O)C2 [Compound 1066, N-{(2S)-4-[2-(4-chloro-3-fluorophenoxy)acetamido]-2-hydroxybicyclo[2.2.2]octan-1-yl}-1-(3,4-dichlorophenyl)-1H-pyrazole-3-carboxamide] | < 50
Cc1nc(C(=O)NC23CC(NC(=O)COc4ccc(Cl)c(F)c4)(C2)C3)n(C)n1 [Compound 1067, N-{3-[2-(4-chloro-3-fluorophenoxy)acetamido]bicyclo[1.1.1]pentan-1-yl}-1,3-dimethyl-1H-1,2,4-triazole-5-carboxamide] | 50 to 250
O=C(COc1ccc(Cl)c(F)c1)NC12CCC(NC(=O)c3n[nH]c(-c4ccc(Cl)cc4)n3)(CC1)C[C@@H]2O [Compound 1068, N-{(3S)-4-[2-(4-chloro-3-fluorophenoxy)acetamido]-3-hydroxybicyclo[2.2.2]octan-1-yl}-5-(4-chlorophenyl)-1H-1,2,4-triazole-3-carboxamide] | > 2000
COc1ncc(OCC(=O)NC23CCC(NC(=O)c4cc(C(F)F)no4)(CC2)C[C@@H]3O)cn1 [Compound 1069, 3-(difluoromethyl)-N-[(3S)-3-hydroxy-4-{2-[(2-methoxypyrimidin-5-yl)oxy]acetamido}bicyclo[2.2.2]octan-1-yl]-1,2-oxazole-5-carboxamide] | 1000 to 2000
O=C(COc1cccc(F)c1)NC12CCC(NC(=O)c3cc(C(F)F)no3)(CC1)C[C@@H]2O [Compound 1070, 3-(difluoromethyl)-N-{(3S)-4-[2-(3-fluorophenoxy)acetamido]-3-hydroxybicyclo[2.2.2]octan-1-yl}-1,2-oxazole-5-carboxamide] | 50 to 250
O=C(COc1ccccn1)NC12CCC(NC(=O)c3cc(C(F)F)no3)(CC1)C[C@@H]2O [Compound 1071, 3-(difluoromethyl)-N-[(3S)-3-hydroxy-4-{2-[(pyridin-2-yl)oxy]acetamido}bicyclo[2.2.2]octan-1-yl]-1,2-oxazole-5-carboxamide] | > 2000
O=C(COc1cccc(Cl)c1)NC12CCC(NC(=O)c3cc(C(F)F)no3)(CC1)C[C@@H]2O [Compound 1072, N-{(3S)-4-[2-(3-chlorophenoxy)acetamido]-3-hydroxybicyclo[2.2.2]octan-1-yl}-3-(difluoromethyl)-1,2-oxazole-5-carboxamide] | 50 to 250
COc1ncc(C(=O)NC23CCC(NC(=O)COc4ccc(Cl)c(F)c4)(CC2)[C@@H](O)C3)cn1 [Compound 1073, N-{(3S)-4-[2-(4-chloro-3-fluorophenoxy)acetamido]-3-hydroxybicyclo[2.2.2]octan-1-yl}-2-methoxypyrimidine-5-carboxamide] | 50 to 250
COc1ncc(C(=O)NC23CCC(NC(=O)COc4ccc(C(F)(F)F)c(F)c4)(CC2)[C@@H](O)C3)cn1 [Compound 1074, N-[(3S)-4-{2-[3-fluoro-4-(trifluoromethyl)phenoxy]acetamido}-3-hydroxybicyclo[2.2.2]octan-1-yl]-2-methoxypyrimidine-5-carboxamide] | 50 to 250
O=C(COc1ccc(Cl)c(F)c1)NC12CCC(NC(=O)c3nc4cc(F)c(F)cc4o3)(CC1)C[C@@H]2O [Compound 1075, N-{(3S)-4-[2-(4-chloro-3-fluorophenoxy)acetamido]-3-hydroxybicyclo[2.2.2]octan-1-yl}-5,6-difluoro-1,3-benzoxazole-2-carboxamide] | < 50
O=C(COc1ccc(C(F)(F)F)nc1)NC12CCC(NC(=O)c3cc4cc(Cl)ccc4o3)(CC1)C[C@@H]2O [Compound 1076, 5-chloro-N-[(3S)-3-hydroxy-4-(2-{[6-(trifluoromethyl)pyridin-3-yl]oxy}acetamido)bicyclo[2.2.2]octan-1-yl]-1-benzofuran-2-carboxamide] | 50 to 250
O=C(COc1ccc(Cl)c(F)c1)NC12CCC(NC(=O)c3cc4cc(Cl)ccc4o3)(CC1)C[C@@H]2O [Compound 1077, 5-chloro-N-{(3S)-4-[2-(4-chloro-3-fluorophenoxy)acetamido]-3-hydroxybicyclo[2.2.2]octan-1-yl}-1-benzofuran-2-carboxamide] | < 50
O=C(CCOc1ccc(Cl)c(F)c1)NC12CCC(NC(=O)c3cc(C(F)F)no3)(CC1)C[C@@H]2O [Compound 1078, N-{(3S)-4-[3-(4-chloro-3-fluorophenoxy)propanamido]-3-hydroxybicyclo[2.2.2]octan-1-yl}-3-(difluoromethyl)-1,2-oxazole-5-carboxamide] | 250 to 1000
O=C(CCOc1ccc(Cl)c(F)c1)NC12CC(NC(=O)c3ccc(OC(F)(F)F)cn3)(C1)C2 [Compound 1079, N-{3-[3-(4-chloro-3-fluorophenoxy)propanamido]bicyclo[1.1.1]pentan-1-yl}-5-(trifluoromethoxy)pyridine-2-carboxamide] | > 2000
O=C(COc1cc(F)c2cn[nH]c2c1)NC12CCC(NC(=O)c3cnc(C(F)F)cn3)(CC1)[C@@H](O)C2 [Compound 1080, 5-(difluoromethyl)-N-[(2S)-4-{2-[(4-fluoro-1H-indazol-6-yl)oxy]acetamido}-2-hydroxybicyclo[2.2.2]octan-1-yl]pyrazine-2-carboxamide] | 50 to 250
Cc1onc(C(=O)NC23CC(NC(=O)COc4ccc(Cl)c(F)c4)(C2)C3)c1C(=O)Nc1ncc(C(F)(F)F)cc1Cl [Compound 1081, N^3-{3-[2-(4-chloro-3-fluorophenoxy)acetamido]bicyclo[1.1.1]pentan-1-yl}-N^4-[3-chloro-5-(trifluoromethyl)pyridin-2-yl]-5-methyl-1,2-oxazole-3,4-dicarboxamide] | > 2000
O=C(COc1ccc(Cl)c(F)c1)NC12CCC(NC(=O)c3ccc4c(n3)CCCC4)(CC1)[C@@H](O)C2 [Compound 1082, N-{(2S)-4-[2-(4-chloro-3-fluorophenoxy)acetamido]-2-hydroxybicyclo[2.2.2]octan-1-yl}-5,6,7,8-tetrahydroquinoline-2-carboxamide] | < 50
O=C(COc1ccc(OC(F)(F)F)cc1)NC12CCC(NC(=O)c3ccc(Cl)c(F)c3)(CC1)[C@@H](O)C2 [Compound 1083, 4-chloro-3-fluoro-N-[(2S)-2-hydroxy-4-{2-[4-(trifluoromethoxy)phenoxy]acetamido}bicyclo[2.2.2]octan-1-yl]benzamide] | > 2000
O=C(COc1ccc(Cl)c(F)c1)NC12CC(NC(=O)c3cncc(CO)n3)(C1)C2 [Compound 1084, N-{3-[2-(4-chloro-3-fluorophenoxy)acetamido]bicyclo[1.1.1]pentan-1-yl}-6-(hydroxymethyl)pyrazine-2-carboxamide] | 1000 to 2000
O=C(COc1ccc(Cl)c(F)c1)NC12CC(NC(=O)c3cc(F)cc4c3OCOC4)(C1)C2 [Compound 1085, N-{3-[2-(4-chloro-3-fluorophenoxy)acetamido]bicyclo[1.1.1]pentan-1-yl}-6-fluoro-2H,4H-1,3-benzodioxine-8-carboxamide] | 1000 to 2000

Source: patent publication US20240307382A1, “MODULATORS OF THE INTEGRATED STRESS PATHWAY” (Calico Life Sciences LLC, priority 2017, published 2024)
